DBAASP
≈ marks a conversion by molar mass, not a printed value.

Experiments:
Assay in all cases: ≥ marks a high value that may be exact or a test limit, other limits are often not marked, values filed in µg/mL are converted to µM
[1] = test system: Staphylococcus aureus ATCC 25923
[2] = test system: Candida albicans ATCC 2002
[3] = test system: Escherichia coli ATCC 25922
[4] = test system: Pseudomonas aeruginosa CMCCB 10104

Compound	MIC [1]	MIC [2]	MIC [3]	MIC [4]
CC[C@H](C)[C@H](NC(=O)[C@H](Cc1ccccc1)NC(=O)[C@H](CCCCN)NC(=O)[C@H](CC(=O)O)NC(=O)[C@@H](NC(=O)[C@H](CC(C)C)NC(=O)[C@H](CC(=O)O)NC(=O)[C@H](CCC(=O)O)NC(=O)[C@H](C)NC(=O)[C@H](CC(=O)O)NC(=O)[C@H](CCC(=O)O)NC(=O)CNC(=O)[C@H](CC(N)=O)NC(=O)[C@H](CCC(=O)O)NC(=O)[C@@H](NC(=O)[C@H](CC(N)=O)NC(=O)[C@H](C)NC(=O)[C@@H](N)CC(=O)O)C(C)C)[C@@H](C)O)C(=O)NCC(=O)N[C@@H](CC(C)C)C(=O)N[C@@H](CCSC)C(=O)NCC(=O)O [DANVENGEDAEDLTDKFIGLMG]	> 85 µM	≥ 85 µM	> 85 µM	≥ 85 µM
CC[C@H](C)[C@H](NC(=O)CN)C(=O)N[C@@H](Cc1ccccc1)C(=O)N[C@@H](CO)C(=O)N[C@@H](CCCCN)C(=O)N[C@H](C(=O)N[C@@H](CO)C(=O)NCC(=O)N[C@@H](CCCCN)C(=O)N[C@@H](C)C(=O)N[C@H](C(=O)N[C@@H](CCCCN)C(=O)N[C@@H](CC(N)=O)C(=O)N[C@@H](CC(C)C)C(=O)N[C@@H](Cc1ccccc1)C(=O)N[C@H](C(=O)N[C@@H](CCCCN)C(=O)NCC(=O)N[C@@H](C)C(=O)N[C@@H](CCCCN)C(=O)N[C@@H](CC(N)=O)C(=O)N[C@H](C(=O)NCC(=O)N[C@@H](CCCCN)C(=O)N[C@@H](CCCN=C(N)N)C(=O)N[C@H](C(=O)NCC(=O)N[C@@H](CCSC)C(=O)N[C@@H](CC(=O)O)C(=O)N[C@H](C(=O)N[C@H](C(=O)N[C@@H](CCCN=C(N)N)C(=O)N[C@H](C(=O)NCC(=O)N[C@@H](CCSC)C(=O)N[C@@H](CC(=O)O)C(=O)N[C@H](C(=O)N[C@H](C(=O)NCC(=O)N[C@H]1CSSC[C@@H](C(=O)O)NC(=O)[C@H](CCC(=O)O)NC(=O)CNC(=O)[C@H](CCCCN)NC(=O)[C@H]([C@@H](C)CC)NC(=O)[C@H](CCCCN)NC1=O)C(C)C)C(C)C)[C@@H](C)O)C(C)C)C(C)C)C(C)C)C(C)C)[C@@H](C)CC)[C@@H](C)CC)[C@@H](C)CC [GIFSKISGKAIKNLFIKGAKNVGKRVGMDVVRTGMDVVGCKIKGEC]	2.27 µM (≈ 11 µg/mL)	2.27 µM (≈ 11 µg/mL)	1.13 µM (≈ 5.5 µg/mL)	2.27 µM (≈ 11 µg/mL)
CC[C@H](C)[C@H](NC(=O)CN)C(=O)N[C@@H](CC(C)C)C(=O)NCC(=O)N[C@@H](CC(N)=O)C(=O)N[C@H](C(=O)N[C@H](C(=O)NCC(=O)N[C@@H](CCSC)C(=O)NCC(=O)N[C@@H](CCCCN)C(=O)N[C@@H](CCCCN)C(=O)N[C@H](C(=O)N[C@H](C(=O)N[C@H]1CSSC[C@@H](C(=O)O)NC(=O)[C@H](CC(C)C)NC(=O)CNC(=O)[C@H](CO)NC(=O)[C@H](CC(C)C)NC(=O)CNC1=O)C(C)C)[C@@H](C)CC)C(C)C)[C@@H](C)CC [GILGNIVGMGKKIVCGLSGLC]	3.05 µM (≈ 6.19 µg/mL)	1.53 µM (≈ 3.1 µg/mL)	3.05 µM (≈ 6.19 µg/mL)	6.1 µM (≈ 12.4 µg/mL)

Continued, values first:

MIC [1]	MIC [2]	MIC [3]	MIC [4]	Compound
4.32 µM (≈ 8.59 µg/mL)	4.32 µM (≈ 8.59 µg/mL)	4.32 µM (≈ 8.59 µg/mL)	8.64 µM (≈ 17.2 µg/mL)	CC[C@H](C)[C@H](NC(=O)CNC(=O)[C@H](CO)NC(=O)[C@H](CC(C)C)NC(=O)[C@@H](NC(=O)CN)[C@@H](C)CC)C(=O)N[C@@H](CC(C)C)C(=O)NCC(=O)N[C@H](C(=O)NCC(=O)N[C@@H](CCCCN)C(=O)N[C@@H](CCSC)C(=O)N[C@@H](CC(C)C)C(=O)N[C@H](C(=O)N[C@H]1CSSC[C@@H](C(=O)O)NC(=O)[C@H](CC(C)C)NC(=O)CNC(=O)[C@H](CO)NC(=O)[C@H](CC(C)C)NC(=O)CNC1=O)C(C)C)C(C)C [GILSGILGVGKMLVCGLSGLC]
5.82 µM (≈ 12.2 µg/mL)	11.6 µM (≈ 24.3 µg/mL)	11.6 µM (≈ 24.3 µg/mL)	23.2 µM (≈ 48.6 µg/mL)	CC[C@H](C)[C@H](NC(=O)[C@H](CC(C)C)NC(=O)[C@@H](NC(=O)[C@H](Cc1ccccc1)NC(=O)[C@H](CC(C)C)NC(=O)CN)[C@@H](C)O)C(=O)N[C@@H](CCCCN)C(=O)NCC(=O)N[C@@H](C)C(=O)N[C@@H](Cc1ccc(O)cc1)C(=O)N[C@@H](CCCCN)C(=O)N[C@@H](CC(N)=O)C(=O)N[C@@H](CC(=O)O)C(=O)N[C@@H](C)C(=O)N1CCC[C@H]1C(=O)N[C@H](C(=O)N[C@H](C(=O)N[C@@H](C)C(=O)N[C@@H](CS)C(=O)N[C@@H](CC(N)=O)C(=O)O)C(C)C)[C@@H](C)O [GLFTLIKGAYKNDAPTVACN]
